Assay results reported in patent US7713994B2 (Wyeth LLC, priority 2005, dated 2010).
Like-named read-outs stand apart in the source and are kept apart here.

Tests used:
cyclin D1/cdk 4 enzyme = molecular target: T1, cyclin D1/cdk 4 enzyme (Homo sapiens, UniProt P11802); assay: CDK4 ELISA kinase assay (phospho-Rb ser 795 detection); assay type: biochemical
T1 construct: made in house; host or cells: Sf9 insect cells, recombinant baculovirus
Procedure, shortened: (§1)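 GST-Rb C-terminal fragment coated on plates; partially purified Sf9-expressed cyclin D1/CDK4, cyclin E/CDK2 or cyclin B/CDK1 with 200 μM ATP, pH 7.5 HEPES/MgCl2 buffer, 1 h at 30 °C; screen compound final 10 μg/ml. Phospho-Rb Ser795 detected by antibody ELISA (TMB, A450); % of control, IC50 from background-subtracted inhibition curves.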

cyclin E/CDK2 enzyme = molecular target: T2, cyclin E/CDK2 enzyme (Homo sapiens, UniProt P24941); assay: CDK2 ELISA kinase assay (phospho-Rb ser 795 detection); assay type: biochemical
T2 construct: made in house; host or cells: Sf9 insect cells, recombinant baculovirus
Procedure, shortened: as §1

cyclin B/CDK1 enzyme = molecular target: T3, cyclin B/CDK1 enzyme (Homo sapiens, UniProt P06493); assay: CDK1 ELISA kinase assay (phospho-Rb ser 795 detection); assay type: biochemical
T3 construct: purchased New England BioLabs; host or cells: Sf9 insect cells, recombinant baculovirus
T3 sequence (P06493 whole entry): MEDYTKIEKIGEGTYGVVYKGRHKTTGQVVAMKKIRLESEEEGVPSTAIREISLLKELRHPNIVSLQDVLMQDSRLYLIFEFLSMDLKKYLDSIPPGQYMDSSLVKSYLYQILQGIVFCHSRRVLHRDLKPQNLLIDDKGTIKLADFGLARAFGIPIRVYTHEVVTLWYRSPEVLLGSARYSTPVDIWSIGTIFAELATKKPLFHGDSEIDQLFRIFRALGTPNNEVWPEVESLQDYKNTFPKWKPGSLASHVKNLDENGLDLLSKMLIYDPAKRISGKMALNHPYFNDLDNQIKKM
T3 sequence (P14635 whole entry partner): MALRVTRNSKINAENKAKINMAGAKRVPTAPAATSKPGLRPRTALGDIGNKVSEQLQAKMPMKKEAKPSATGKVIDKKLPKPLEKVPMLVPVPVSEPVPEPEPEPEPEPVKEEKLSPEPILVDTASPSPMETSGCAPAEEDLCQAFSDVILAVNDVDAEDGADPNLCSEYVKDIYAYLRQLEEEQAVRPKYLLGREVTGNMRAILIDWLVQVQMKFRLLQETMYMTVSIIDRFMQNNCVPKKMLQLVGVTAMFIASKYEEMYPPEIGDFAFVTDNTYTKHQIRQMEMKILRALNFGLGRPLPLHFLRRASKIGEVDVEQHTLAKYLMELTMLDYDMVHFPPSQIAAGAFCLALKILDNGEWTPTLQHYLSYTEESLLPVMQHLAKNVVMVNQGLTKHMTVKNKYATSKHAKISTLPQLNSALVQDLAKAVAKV
Procedure, shortened: as §1

BT474 = assay: Cytotoxicity assay (SRB), BT474; assay type: cell-based
Procedure, shortened: (§2)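 Cells seeded overnight at 37 °C, 7% CO2 (BT474 12000, HCT-116 4000, LoVo and MCF-7 6000 cells/well) in RPMI 1640 with 5% FBS, then exposed to compound dilutions for 3 days (BT474 6 days). Survival versus untreated controls by TCA fixation and SRB staining, absorbance 540 nm.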

HCT-116 = assay: Cytotoxicity assay (SRB), HCT-116; assay type: cell-based; conditions: Homo sapiens, HCT-116, 72 h, HCT116 cells, SRB, read-out: In Vitro Cellular Activity IC50 HCT116
Procedure, shortened: as §2

LoVo = assay: Cytotoxicity assay (SRB), LoVo; assay type: cell-based; conditions: Homo sapiens, LoVo, 72 h, LoVo cells, SRB, read-out: In Vitro Cellular Activity IC50 LOVO
Procedure, shortened: as §2

MCF-7 = assay: Cytotoxicity assay (SRB), MCF-7; assay type: cell-based; conditions: Homo sapiens, MCF7, 72 h, MCF-7 cells, SRB, read-out: In Vitro Cellular Activity IC50 MCF-7
Procedure, shortened: as §2

[1] = In Vitro Enzyme Assays, 200 μM ATP, read-out: CDK4 IC50
[2] = In Vitro Enzyme Assays, read-out: CDK2 IC50
[3] = In Vitro Enzyme Assays, read-out: CDK1 IC50
[4] = Homo sapiens, BT-474, 144 h, BT474 cells, SRB, 6 days; read-out: In Vitro Cellular Activity IC50 BT474
[5] = In Vitro Enzyme Assay, cyclin D1/cdk 4, read-out: CDK4 IC50
[6] = In Vitro Enzyme Assay, cyclin E/CDK2, read-out: CDK2 IC50
[7] = In Vitro Enzyme Assay, cyclin B/CDK1, read-out: CDK1 IC50
[8] = Homo sapiens, BT-474, 144 h, BT474 cells, 6 days, SRB; read-out: In Vitro Cellular Activity IC50 BT474

T1 sequence (P11802 whole entry, species assumed): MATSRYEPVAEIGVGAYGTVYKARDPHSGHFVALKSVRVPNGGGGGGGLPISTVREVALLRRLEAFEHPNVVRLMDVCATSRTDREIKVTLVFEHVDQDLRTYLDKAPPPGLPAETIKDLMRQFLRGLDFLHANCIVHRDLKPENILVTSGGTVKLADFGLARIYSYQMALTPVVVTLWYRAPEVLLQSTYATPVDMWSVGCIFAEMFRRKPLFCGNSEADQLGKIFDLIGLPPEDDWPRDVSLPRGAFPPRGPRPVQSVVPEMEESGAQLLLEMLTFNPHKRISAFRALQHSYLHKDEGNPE
T1 sequence (P24385 whole entry partner, species assumed): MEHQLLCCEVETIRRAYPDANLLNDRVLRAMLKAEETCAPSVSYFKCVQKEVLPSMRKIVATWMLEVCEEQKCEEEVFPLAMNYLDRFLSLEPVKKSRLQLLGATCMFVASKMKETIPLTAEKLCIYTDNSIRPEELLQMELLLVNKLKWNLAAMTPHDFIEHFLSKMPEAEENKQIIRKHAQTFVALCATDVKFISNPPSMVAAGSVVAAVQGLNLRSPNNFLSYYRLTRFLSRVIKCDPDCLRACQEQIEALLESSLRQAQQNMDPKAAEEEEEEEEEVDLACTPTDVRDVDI

Row | SMILES | IC50 (cyclin D1/cdk 4 enzyme; [1]) [µM] | IC50 (cyclin E/CDK2 enzyme; [2]) [µM] | IC50 (cyclin B/CDK1 enzyme; [3]) [µM] | IC50 (BT474; [4]) [µM] | IC50 (HCT-116; three days) [µM] | IC50 (LoVo; three days) [µM] | IC50 (MCF-7; three days) [µM] | IC50 (cyclin D1/cdk 4 enzyme; [5]) [µM] | IC50 (cyclin E/CDK2 enzyme; [6]) [µM] | IC50 (cyclin B/CDK1 enzyme; [7]) [µM] | IC50 (BT474; [8]) [µM] | IC50 (HCT-116; 3 days) [µM] | IC50 (LoVo; 3 days) [µM] | IC50 (MCF-7; 3 days) [µM]
1 | C#CC(=O)Nc1ccc(CN/C=C2\C(=O)NC(=O)c3ccc(I)cc32)cc1O [Example 340, N-[2-Hydroxy-4-({[(Z)-(6-iodo-1,3-dioxo-2,3-dihydroisoquinolin-4(1H)-ylidene)methyl]amino}methyl)phenyl]prop-2-ynamide] | 0.07 | 1.6 | 6.1 | 1.4 | 1.2 | 1.4 | 1.4 | – | – | – | – | – | – | –
2 | O=C1NCc2cc(Br)ccc2C1=CNc1ccc(CN2CCCC2)cc1 [Example 847, 7-Bromo-4-[(4-pyrrolidin-1-ylmethyl-phenylamino)-methylene]-1,4-dihydro-2H-isoquinolin-3-one] | – | – | – | – | – | – | – | 5 | > 50 | > 50 | 8.1 | 4.3 | 4.9 | 6
3 | CN(C)CCSc1ccc(N/C=C2\C(=O)NC(=O)c3ccc(Br)cc32)cc1 [Example 229, (4Z)-6-Bromo-4-{[(4-{[2-(dimethylamino)ethyl]thio}phenyl)amino]methylene}isoquinoline-1,3(2H,4H)-dione] | 0.24 | > 50 | > 50 | 4 | 3.6 | 8.5 | 4.6 | – | – | – | – | – | – | –
4 | Cc1ccc(-c2ccc3c(c2)C(=CNCc2ccc(O)c(O)c2)C(=O)NC3=O)cc1 [Example 781, 4-[(3,4-Dihydroxy-benzylamino)-methylene]-6-p-tolyl-4H-isoquinoline-1,3-dione] | – | – | – | – | – | – | – | 0.74 | 27.7 | > 50 | 23.3 | 14.4 | 14 | 12.7
5 | N#CCc1ccc(NC=C2C(=O)NC(=O)c3ccc(-c4ccc[nH]4)cc32)cc1 [Example 630, (4-{[1,3-Dioxo-6-(1H-pyrrol-2-yl)-2,3-dihydro-1H-isoquinolin-4-ylidenemethyl]-amino}-phenyl)-acetonitrile] | – | – | – | – | – | – | – | 0.2 | 17.3 | 31 | 45.3 | 26 | 45.8 | 20
6 | CN1CCN(c2ccc(NC=C3C(=O)NC(=O)c4ccc(-c5ccc(CO)cc5)cc43)cc2)CC1 [Example 808, 6-(4-Hydroxymethyl-phenyl)-4-{[4-(4-methyl-piperazin-1-yl)-phenylamino]-methylene}-4H-isoquinoline-1,3-dione] | – | – | – | – | – | – | – | 0.38 | > 50 | > 50 | 8 | 1.6 | 5.4 | 8.6
7 | CC(=O)Nc1ccc(CN/C=C2\C(=O)NC(=O)c3ccc(I)cc32)cc1O [Example 151, N-[2-Hydroxy-4-({[(Z)-(6-iodo-1,3-dioxo-2,3-dihydroisoquinolin-4(1H)-′ylidene)methyl]amino}methyl)phenyl]acetamide] | 0.03 | 1.8 | 36.4 | 0.9 | 1.3 | 1.9 | 6.6 | – | – | – | – | – | – | –
8 | CN(C)CC1CCN(c2ccc(N/C=C3\C(=O)NC(=O)c4ccc(I)cc43)cc2)CC1 [Example 454, (4Z)-4-{[(4-{4-[(Dimethylamino)methyl]piperidin-1-yl}phenyl)amino]methylene}-6-iodoisoquinoline-1,3(2H,4H)-dione] | 0.36 | > 50 | > 50 | – | – | – | – | – | – | – | 10.5 | 7.4 | 10.5 | 11.5
9 | COc1cc(CN/C=C2\C(=O)NC(=O)c3ccc(Br)cc32)ccn1 [Example 222, (4Z)-6-Bromo-4-({[(2-methoxypyridin-4-yl)methyl]amino}methylene)isoquinoline-1,3(2H,4H)-dione] | 31.7 | 6.1 | > 50 | 13 | 14 | 19 | 13 | – | – | – | – | – | – | –
10 | CN(C)Cc1ccc(C=Cc2ccc3c(c2)C(=CNCc2ccc(O)c(O)c2)C(=O)NC3=O)cc1 [Example 736, 4-[(3,4-Dihydroxy-benzylamino)-methylene]-6-[2-(4-dimethylaminomethyl-phenyl)-vinyl]-4H-isoquinoline-1,3-dione] | – | – | – | – | – | – | – | 0.84 | 21.1 | > 50 | 39.9 | 20.5 | 11.5 | > 50
11 | C=C(CN(C)C)C(=O)Nc1ccc(CN/C=C2\C(=O)NC(=O)c3ccc(I)cc32)cc1O [Example 338, 2-[(Dimethylamino)methyl]-N-[2-hydroxy-4-({[(Z)-(6-iodo-1,3-dioxo-2,3-dihydroisoquinolin-4(1H)-ylidene)methyl]amino}methyl)phenyl]acrylamide] | 0.1 | 2.8 | 13.8 | 2 | 0.95 | 0.87 | 0.94 | – | – | – | – | – | – | –
12 | O=C1NC(=O)c2ccc(-c3ccco3)cc2/C1=C/NCc1ccc(-c2ccc(F)cc2)c(O)c1 [Example 501, 4-{[(4′-Fluoro-2-hydroxy-biphenyl-4-ylmethyl)-amino]-methylene}-6-furan-2-yl-4H-isoquinoline-1,3-dione] | – | – | – | – | – | – | – | 0.03 | 29.3 | > 50 | 3.5 | 2.6 | 2.9 | 1.4
13 | CCCOc1cnc(CNC=C2C(=O)NC(=O)c3ccc(-n4cccc4)cc32)cc1O [Example 363, 4-{[(4-Hydroxy-5-propoxy-pyridin-2-ylmethyl)-amino]-methylene}-6-pyrrol-1-yl-4H-isoquinoline-1,3-dione] | 0.006 | 14.7 | > 50 | 1.5 | 3.2 | 2.3 | 2.4 | – | – | – | – | – | – | –
14 | CC#CC(=O)Nc1ccc(CN/C=C2\C(=O)NC(=O)c3ccc(I)cc32)cc1O [Example 339, N-[2-Hydroxy-4-({[(Z)-(6-iodo-1,3-dioxo-2,3-dihydroisoquinolin-4(1H)-ylidene)methyl]amino}methyl)phenyl]but-2-ynamide] | 0.07 | 0.37 | 0.82 | 5.1 | 10 | 12 | 16 | – | – | – | – | – | – | –
15 | NS(=O)(=O)c1ccc(CNC=C2C(=O)NC(=O)c3ccc(-c4ccc5[nH]ccc5c4)cc32)cc1 [Example 637, 4-({[6-(1H-Indol-5-yl)-1,3-dioxo-2,3-dihydro-1H-isoquinolin-4-ylidenemethyl]-amino}-methyl)-benzenesulfonamide] | – | – | – | – | – | – | – | 0.81 | 13.5 | 18 | 29.2 | > 50 | > 50 | 22.7
16 | CCCOc1ccc(CN/C=C2\C(=O)NC(=O)c3ccc(Br)cc32)cc1C(N)=O [Example 353, 5-({[(Z)-(6-Bromo-1,3-dioxo-2,3-dihydroisoquinolin-4(1H)-ylidene)methyl]amino}methyl)-2-propoxybenzamide] | > 50 | 31.7 | > 50 | 0.67 | 6.1 | 1 | > 50 | – | – | – | – | – | – | –
17 | CCCCCCOc1ccc(CN/C=C2\C(=O)NC(=O)c3ccc(Br)cc32)cc1O [Example 150, (4Z)-6-Bromo-4-({[4-(hexyloxy)-3-hydroxybenzyl]amino}methylene)isoquinoline-1,3(2H,4H)-dione] | 7.2 | > 50 | > 50 | > 50 | 49 | > 50 | 46 | – | – | – | – | – | – | –
18 | O=C1NC(=O)c2ccc(I)cc2/C1=C/NCc1cc(O)c(OCCN2CCCC2)cn1 [Example 522, 4-({[4-Hydroxy-5-(2-pyrrolidin-1-yl-ethoxy)-pyridin-2-ylmethyl]-amino}-methylene)-6-iodo-4H-isoquinoline-1,3-dione] | – | – | – | – | – | – | – | 0.11 | 4.5 | 32.4 | 2.13 | 1.42 | 1.19 | 0.99
